Test system: 699152-130-R-J1-PDC complex spheroid growth
Assay: Anticancer human tumor 699152-130-R-J1-PDC patient-derived pancreatic carcinoma cell line growth inhibition [AhR]
Details: for IC50: curve of first compound; for viability, T/C: stronger effect = lower value
Outline: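 Agents were dosed in half-log steps down from roughly clinical Cmax, or from 10 microM where Cmax was unknown, alone and with AhR antagonists. Read-out: percent test/control growth of tumor spheroids containing HUVEC and MSC stromal cells.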

[1] = second compound 0.1 µM, first compound 0.0316 µM
[2] = second compound 0.1 µM, first compound 0.1 µM
[3] = second compound 0.1 µM, first compound 0.316 µM
[4] = second compound 0.1 µM, first compound 1 µM
[5] = second compound 0.316 µM, first compound 0.0316 µM
[6] = second compound 0.316 µM, first compound 0.1 µM
[7] = second compound 0.316 µM, first compound 0.316 µM
[8] = second compound 0.316 µM, first compound 1 µM
[9] = second compound 1 µM, first compound 0.0316 µM
[10] = second compound 1 µM, first compound 0.1 µM
[11] = second compound 1 µM, first compound 0.316 µM
[12] = second compound 1 µM, first compound 1 µM
[13] = second compound 3.16 µM, first compound 0.0316 µM
[14] = second compound 3.16 µM, first compound 0.1 µM
[15] = second compound 3.16 µM, first compound 0.316 µM
[16] = second compound 3.16 µM, first compound 1 µM
[17] = second compound 10 µM, first compound 0.0316 µM
[18] = second compound 10 µM, first compound 0.1 µM
[19] = second compound 10 µM, first compound 0.316 µM
[20] = second compound 10 µM, first compound 1 µM
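Note: compound exposure lasted 7 days after spheroids had grown for 3 days.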

| SMILES | IC50 (second compound 0.1 µM) [µM] | IC50 (second compound 0.316 µM) [µM] | IC50 (second compound 1 µM) [µM] | IC50 (second compound 3.16 µM) [µM] | IC50 (second compound 10 µM) [µM] | viability, T/C [1] [%] | viability, T/C [2] [%] | viability, T/C [3] [%] | viability, T/C [4] [%] | viability, T/C [5] [%] | viability, T/C [6] [%] | viability, T/C [7] [%] | viability, T/C [8] [%] | viability, T/C [9] [%] | viability, T/C [10] [%] | viability, T/C [11] [%] | viability, T/C [12] [%] | viability, T/C [13] [%] | viability, T/C [14] [%] | viability, T/C [15] [%] | further results |
| --- | --- | --- | --- | --- | --- | --- | --- | --- | --- | --- | --- | --- | --- | --- | --- | --- | --- | --- | --- | --- | --- |
| CC(C)c1c(-c2ccccc2)nc2c(C#N)c[nH]n2c1=O + CC(CO)NC(=O)c1cc(-c2ccc(Cl)cc2)nn(-c2cnn(C)c2)c1=O | > 10 | > 10 | > 10 | > 10 | > 10 | 97 | 97.8 | 109 | 100 | 93.6 | 98.7 | 86.4 | 87.9 | 99.7 | 104 | 105 | 97.3 | 92.4 | 90.3 | 94.8 | viability, T/C (second compound 0.1 µM, first compound 3.16 µM): 94.9%; viability, T/C (second compound 0.1 µM, first compound 10 µM): 95.5%; viability, T/C (second compound 0.316 µM, first compound 3.16 µM): 93.3%; viability, T/C (second compound 0.316 µM, first compound 10 µM): 86.6%; viability, T/C (second compound 1 µM, first compound 3.16 µM): 85.5%; viability, T/C (second compound 1 µM, first compound 10 µM): 86.8%; viability, T/C [16]: 95.4%; viability, T/C (second compound 3.16 µM, first compound 3.16 µM): 83.5%; viability, T/C (second compound 3.16 µM, first compound 10 µM): 79.5%; viability, T/C [17]: 95.6%; viability, T/C [18]: 100%; viability, T/C [19]: 82.1%; viability, T/C [20]: 82.7%; viability, T/C (second compound 10 µM, first compound 3.16 µM): 85%; viability, T/C (second compound 10 µM, first compound 10 µM): 79.8% |
| CC1COCCN1c1cc(-c2ccnn2C)c2ccnc(-c3ccn[nH]3)c2n1 (stereo not given) + CC(CO)NC(=O)c1cc(-c2ccc(Cl)cc2)nn(-c2cnn(C)c2)c1=O | > 1 | > 1 | > 1 | > 1 | > 1 | 112 | 94.2 | 86.8 | 63.3 | 110 | 92.1 | 77.7 | 59.1 | 105 | 87.5 | 72.3 | 58.3 | 84.6 | 80.1 | 74 | viability, T/C (second compound 0.1 µM, first compound 0.00316 µM): 105%; viability, T/C (second compound 0.1 µM, first compound 0.01 µM): 112%; viability, T/C (second compound 0.316 µM, first compound 0.00316 µM): 102%; viability, T/C (second compound 0.316 µM, first compound 0.01 µM): 100%; viability, T/C (second compound 1 µM, first compound 0.00316 µM): 102%; viability, T/C (second compound 1 µM, first compound 0.01 µM): 101%; viability, T/C (second compound 3.16 µM, first compound 0.00316 µM): 85.8%; viability, T/C (second compound 3.16 µM, first compound 0.01 µM): 105%; viability, T/C [16]: 65%; viability, T/C (second compound 10 µM, first compound 0.00316 µM): 97.7%; viability, T/C (second compound 10 µM, first compound 0.01 µM): 82.7%; viability, T/C [17]: 81.5%; viability, T/C [18]: 73.9%; viability, T/C [19]: 64.6%; viability, T/C [20]: 58.1% |
